Experimental data reported in US10710980B2, “Aminopyridine derivatives and their use as selective ALK-2 inhibitors” (priority 2016, dated 2020).
≈ marks a conversion by molar mass, not a printed value. Structures can show the parent of a compound that is named as a salt.

What was measured:
ALK6 (aa168-495) = ALK6 (aa168-495) (Homo sapiens (Human), UniProt O00238); experiment: Caliper biochemical peptide phosphorylation assay, ALK6; details: 15 μm ATP, 60 min at 30° C.; read-out: ALK6 EPK (IC50)
[1] = molecular target: T1, wild-type ALK2 (aa172-499) (Homo sapiens (Human), UniProt Q04771); experiment: ADPGlo biochemical autophosphorylation assay, ALK2; details: 15 μm ATP, 60 min at 32° C.
ALK3 (aa198-525) = ALK3 (aa198-525) (Homo sapiens (Human), UniProt P36894); experiment: ADPGlo biochemical autophosphorylation assay, ALK3; details: 15 μm ATP, 60 min at 32° C.
ALK5 (aa162-503) = ALK5 (aa162-503) (Homo sapiens (Human), UniProt P36897); experiment: Caliper biochemical peptide phosphorylation assay, ALK5; details: 15 μm ATP, 60 min at 30° C.; read-out: ALK5 EPK (IC50)
[2] = molecular target: T1, wild-type ALK2 (aa172-499); experiment: Caliper biochemical peptide phosphorylation assay, ALK2; details: 15 μm ATP, 60 min at 30° C.; read-out: ALK2 EPK (IC50)
[3] = system: BMP response element (BRE) luciferase reporter in HuH7 cells, BMP6 stimulated; experiment: BMP signaling reporter gene assay; type: cell-based; details: Homo sapiens, Huh-7; HuH7 BRE-luciferase, BMP6 100 ng/ml, 5 hours; read-out: MSD BMP RGA IC50
ALK1 (aa166-493) = ALK1 (aa166-493) (Homo sapiens (Human), UniProt P37023); experiment: Caliper biochemical peptide phosphorylation assay, ALK1; details: 15 μm ATP, 60 min at 30° C.; read-out: ALK1 EPK (IC50)
[4] = Solubility (at 25° C., 24 h equilibration); type: physicochemical; details: for solubility at 24 h: 25 °C, thermodynamic from solid; for solubility at 24 h / solubility: target concentration 2 mg/mL; for solubility: 25° C., 24 h
[5] = Dynamic Vapor Sorption, physical stability to humidity; type: physicochemical; details: for physical stability (DVS): 50%-0%-90% RH

T1 sequence (Q04771 172-499): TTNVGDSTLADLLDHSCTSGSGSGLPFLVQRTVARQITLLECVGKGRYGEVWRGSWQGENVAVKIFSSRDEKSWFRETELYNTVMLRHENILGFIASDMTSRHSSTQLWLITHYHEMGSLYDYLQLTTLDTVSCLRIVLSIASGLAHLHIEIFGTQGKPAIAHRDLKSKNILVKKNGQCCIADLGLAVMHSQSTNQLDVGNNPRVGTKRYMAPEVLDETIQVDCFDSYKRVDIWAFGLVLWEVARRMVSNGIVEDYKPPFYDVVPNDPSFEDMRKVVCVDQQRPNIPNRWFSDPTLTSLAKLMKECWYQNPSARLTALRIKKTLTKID
Sequence of ALK5 (aa162-503) (P36897 162-503): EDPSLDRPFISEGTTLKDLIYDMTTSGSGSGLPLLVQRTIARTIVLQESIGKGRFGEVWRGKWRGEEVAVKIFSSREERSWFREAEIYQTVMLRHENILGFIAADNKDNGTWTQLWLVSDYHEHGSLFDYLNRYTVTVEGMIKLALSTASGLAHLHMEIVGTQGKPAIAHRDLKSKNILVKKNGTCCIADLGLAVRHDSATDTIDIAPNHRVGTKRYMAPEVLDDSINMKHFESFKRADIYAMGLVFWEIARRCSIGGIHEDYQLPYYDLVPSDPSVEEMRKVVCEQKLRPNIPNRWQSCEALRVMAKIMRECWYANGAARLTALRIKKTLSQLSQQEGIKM
Sequence of ALK6 (aa168-495) (O00238 168-495): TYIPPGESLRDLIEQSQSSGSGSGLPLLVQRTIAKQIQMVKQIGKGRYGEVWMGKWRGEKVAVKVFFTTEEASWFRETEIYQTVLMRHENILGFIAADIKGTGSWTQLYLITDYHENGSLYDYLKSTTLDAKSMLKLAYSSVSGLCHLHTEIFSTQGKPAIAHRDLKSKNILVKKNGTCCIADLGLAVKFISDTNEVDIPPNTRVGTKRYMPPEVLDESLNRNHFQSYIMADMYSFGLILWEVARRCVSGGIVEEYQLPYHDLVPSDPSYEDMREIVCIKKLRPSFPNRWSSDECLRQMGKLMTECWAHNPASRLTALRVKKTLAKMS
Sequence of ALK3 (aa198-525) (P36894 198-525): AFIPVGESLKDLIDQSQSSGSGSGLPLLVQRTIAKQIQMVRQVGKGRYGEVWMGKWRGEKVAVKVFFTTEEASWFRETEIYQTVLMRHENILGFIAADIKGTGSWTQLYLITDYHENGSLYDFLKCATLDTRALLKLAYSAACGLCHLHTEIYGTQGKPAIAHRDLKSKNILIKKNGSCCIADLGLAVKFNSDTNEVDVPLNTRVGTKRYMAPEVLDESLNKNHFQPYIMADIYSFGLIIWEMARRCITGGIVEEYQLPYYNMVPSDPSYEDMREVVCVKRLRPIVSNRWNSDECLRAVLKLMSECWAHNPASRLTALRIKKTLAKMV
Sequence of ALK1 (aa166-493) (P37023 166-493): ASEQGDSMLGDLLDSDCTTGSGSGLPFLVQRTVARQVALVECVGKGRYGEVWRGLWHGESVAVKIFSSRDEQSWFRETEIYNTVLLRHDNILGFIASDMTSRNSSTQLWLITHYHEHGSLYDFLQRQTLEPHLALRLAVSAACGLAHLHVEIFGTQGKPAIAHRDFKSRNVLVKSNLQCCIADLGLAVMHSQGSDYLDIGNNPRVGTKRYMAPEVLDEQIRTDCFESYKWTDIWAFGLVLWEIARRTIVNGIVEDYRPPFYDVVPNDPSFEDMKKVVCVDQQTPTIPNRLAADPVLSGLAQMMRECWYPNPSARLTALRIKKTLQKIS

| IC50 (ALK6 (aa168-495)) | IC50 [1] | IC50 (ALK3 (aa198-525)) | IC50 (ALK5 (aa162-503)) | IC50 [2] | IC50 [3] | IC50 (ALK1 (aa166-493)) | SMILES | other results |
| --- | --- | --- | --- | --- | --- | --- | --- | --- |
| 20.2 µM | 2.4 µM | 21.9 µM | 20.2 µM | 0.35 µM | 9.5 µM | 20.2 µM | Nc1ncc(-c2cccc(C(=O)N3CCOCC3)c2)cc1C(=O)NC1CCCCC1 [Example 84, 2-amino-N-cyclohexyl-5-(3-(morpholine-4-carbonyl)phenyl)nicotinamide] | – |
| 10 µM | 0.19 µM | 15.1 µM | 10 µM | 0.17 µM | 0.86 µM | 9.8 µM | C[C@@H]1CCCN1Cc1ccc(-c2cnc(N)c(C(=O)N[C@H]3CC[C@](C)(O)CC3)c2)cc1Cl [Example 85, 2-amino-5-(3-chloro-4-(((R)-2-methylpyrrolidin-1-yl)methyl)phenyl)-N-((1r,4R)-4-hydroxy-4-methylcyclohexyl)nicotinamide] | – |
| 10 µM | 0.11 µM | 8.2 µM | 10 µM | 0.205 µM | 1.08 µM | 2.3 µM | C[C@H](c1ccc(-c2cnc(N)c(C(=O)N[C@]3(C)CC[C@@H](O)CC3)c2)cc1)N1CC2(COC2)C1 [Example 86, 5-(4-((R)-1-(2-oxa-6-azaspiro[3.3]heptan-6-yl)ethyl)phenyl)-2-amino-N-((1r,4R)-4-hydroxy-1-methylcyclohexyl)nicotinamide] | – |
| 10 µM | 0.88 µM | 15.1 µM | 10 µM | 0.63 µM | 3.55 µM | 10 µM | Cc1cc(CN2CCC[C@H]2C)ccc1-c1cnc(N)c(C(=O)N[C@H]2CC[C@](C)(O)CC2)c1 [Example 87, 2-amino-N-((1r,4R)-4-hydroxy-4-methylcyclohexyl)-5-(2-methyl-4-(((R)-2-methylpyrrolidin-1-yl)methyl)phenyl)nicotinamide] | – |
| 20.2 µM | 0.99 µM | 22.8 µM | 20.2 µM | 0.81 µM | 9.3 µM | 20.2 µM | Nc1ncc(-c2cccc(C(=O)N3CCN(CCO)CC3)c2)cc1C(=O)NC1CCCCC1 [Example 88, 2-amino-N-cyclohexyl-5-(3-(4-(2-hydroxyethyl)piperazine-1-carbonyl)phenyl)nicotinamide] | – |
| – | – | – | – | – | – | – | Nc1ncc(-c2ccc([C@@]34C[C@@H]3CN(C3CCOCC3)C4)cc2)cc1C(=O)NC12CCC(O)(CC1)CC2 [Free form Modification HA, 2-amino-N-(4-hydroxybicyclo[2.2.2]octan-1-yl)-5-(4-((1R,5S)-3-(tetrahydro-2H-pyran-4-yl)-3-azabicyclo[3.1.0]hexan-1-yl)phenyl)nicotinamide] | solubility at 24 h ([4]; 1N HCl, pH 1, simulated gastric fluid, pH 1.0 1N HCl/1.1, 24 h): > 2000 µg/mL; solubility at 24 h ([4]; FeSSIF, pH 5.8, fessif, pH 5.8 FeSSIF/5.9, 24 h): 1690 µg/mL (≈ 3.36 mM); solubility at 24 h ([4]; HCl buffer, pH 2, simulated gastric fluid, pH 2.0 HCl buffer 2.1, 24 h): > 2000 µg/mL; solubility at 24 h ([4]; SGF, pH 2, simulated gastric fluid, pH 2.0 SGF/2.0, 24 h): > 2000 µg/mL; solubility ([4]; Water/7.2): 70 µg/mL (≈ 0.139 mM); solubility at 24 h ([4]; acetate buffer, pH 4.7, aqueous buffer, pH 4.7 acetate buffer/4.8, 24 h): > 2000 µg/mL; solubility ([4]; pH 6.5 FaSSIF/6.5): 470 µg/mL (≈ 0.935 mM); solubility ([4]; pH 6.8 phosphate buffer/6.8): 340 µg/mL (≈ 0.676 mM); solubility ([4]; pH 9.0 borate buffer/8.6): <LOQ |
| – | – | – | – | – | – | – | Nc1ncc(-c2ccc([C@@]34C[C@@H]3CN(C3CCOCC3)C4)cc2)cc1C(=O)NC12CCC(O)(CC1)CC2 [Fumarate salt Modification HA, 2-amino-N-(4-hydroxybicyclo[2.2.2]octan-1-yl)-5-(4-((1R,5S)-3-(tetrahydro-2H-pyran-4-yl)-3-azabicyclo[3.1.0]hexan-1-yl)phenyl)nicotinamide] | solubility ([4]; Water/7.2): >2000 µg/mL; solubility compared with free form Modification HA ([4]; aqueous buffers): better solubility than free form Modification HA in some aqueous buffers; solubility at 24 h ([4]; borate buffer, pH 9, aqueous buffer, pH 9.0 borate buffer/8.6, 24 h): 30 µg/mL; solubility ([4]; pH 1.0 1N HCl/1.1): >2000 µg/mL; solubility ([4]; pH 2.0 HCl buffer 2.1): >2000 µg/mL; solubility ([4]; pH 2.0 SGF/2.0): >2000 µg/mL; solubility ([4]; pH 4.7 acetate buffer/4.8): >2000 µg/mL; solubility ([4]; pH 5.8 FeSSIF/5.9): >2000 µg/mL; solubility ([4]; pH 6.5 FaSSIF/6.5): 1690 µg/mL; solubility ([4]; pH 6.8 phosphate buffer/6.8): 1080 µg/mL; physical stability (DVS) ([5]; 25° C.): physically stable at least from 0% to 90% RH; physical stability (DVS) ([5]; 40° C.): physically stable at least from 10% to 90% RH; humidity range of stability compared with free form polymorphs ([5]; data not shown): stable over a wider humidity range than free form polymorphs |
